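Values below derive from 48-hour exposures of cells grown in 96-well plates, with endpoints linearly interpolated between the two concentrations bracketing the appropriate inhibition level. Here, GI50 denotes the concentration required for 50% inhibition of growth.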 Active and inactive are the calls of the source. Cut-off read from the data, not from the text of the source: active = GI50 up to about 1.1 µM and inactive = higher.
Assays:
Assay in all cases: DTP human tumour cell line panel, 48 h
[1] = test system: 786-0
[2] = test system: A498
[3] = test system: A549
[4] = test system: ACHN
[5] = test system: CAKI-1
[6] = test system: HOP-92
[7] = test system: K562
[8] = test system: KM-20L2
[9] = test system: MOLT-4
[10] = test system: Malme-3M
[11] = test system: OVCAR-5
[12] = test system: SK-MEL-28
[13] = test system: SK-MEL-2
[14] = test system: SK-MEL-5
[15] = test system: SNB-19
[16] = test system: SNB-75
[17] = test system: M14
[18] = test system: BT-549
[19] = test system: MDA-N
[20] = test system: PC-3

Measured: GI50

CC(=O)NNc1nc(C)c(C(=O)/C=C/c2ccc(NC(C)=O)cc2)s1
inactive: [1] > 100 µM | [2] > 100 µM | [3] > 100 µM | [4] > 100 µM | [5] > 100 µM | [6] > 100 µM | [7] > 100 µM | [8] > 100 µM | [9] > 100 µM | [10] > 100 µM | [11] > 100 µM | [12] > 100 µM | [13] > 100 µM | [14] > 100 µM | [15] > 100 µM | [16] > 100 µM

CCOc1ccccc1NC(=O)CC(C(=O)OC)C(=O)C(=O)OC (stereo unspecified)
inactive: [1] > 100 µM | [2] > 100 µM | [3] > 100 µM | [4] > 100 µM | [5] > 100 µM | [6] > 100 µM | [7] > 100 µM | [8] > 100 µM | [17] > 100 µM | [9] > 100 µM | [10] > 100 µM | [11] > 100 µM | [12] > 100 µM | [13] > 100 µM | [14] > 100 µM | [15] > 100 µM

O=S(=O)(SCc1ccccc1)C(c1ccccc1)c1ccccc1
inactive: [1] 31.6 µM | [2] 29.6 µM | [3] 32 µM | [4] 37.8 µM | [5] 31 µM | [6] 5.57 µM | [7] 6.67 µM | [8] 20.6 µM | [17] 24 µM | [9] 3.7 µM | [10] 36.1 µM | [11] > 100 µM | [12] 48.3 µM | [13] 39.1 µM | [14] 22.5 µM | [15] > 100 µM | [16] 30.3 µM

CCCCCCCCCCCCOC(=S)NC
inactive: [1] 19 µM | [2] 18.1 µM | [4] 20 µM | [6] 15.5 µM | [7] 19.6 µM | [8] 19.4 µM | [17] 19.7 µM | [9] 13.1 µM | [10] 21.6 µM | [11] 12.6 µM | [12] 20 µM | [13] 14.6 µM | [15] 33.4 µM | [16] 29.9 µM

C/C(CC(=O)NCCc1ccccc1)=N\NC(=O)C[n+]1ccccc1
inactive: [1] > 100 µM | [2] > 100 µM | [3] > 100 µM | [4] > 100 µM | [6] > 100 µM | [7] > 100 µM | [8] > 100 µM | [17] > 100 µM | [9] > 100 µM | [10] > 100 µM | [11] > 100 µM | [12] > 100 µM | [13] > 100 µM | [14] > 100 µM | [16] > 100 µM

Nc1ccc(C(=O)N/C(=C\c2cccc([N+](=O)[O-])c2)c2nc3c(O)nc(S)nc3[nH]2)cc1
inactive: [1] 24.5 µM | [2] 65.8 µM | [3] 74.3 µM | [4] > 76.2 µM | [18] > 100 µM | [5] > 100 µM | [6] 20.9 µM | [7] > 100 µM | [8] > 100 µM | [17] > 100 µM | [19] > 100 µM | [9] > 56.2 µM | [10] > 100 µM | [11] > 100 µM | [20] > 100 µM | [12] > 100 µM | [13] 53.7 µM | [14] > 100 µM | [15] 42 µM | [16] 6.61 µM

COC1C=C(Nc2cccc(Cl)c2)C(=O)C1 (stereo unspecified)
inactive: [1] > 100 µM | [2] 15.7 µM | [3] 18.5 µM | [4] 60 µM | [5] 50.9 µM | [6] 39.5 µM | [7] 41.6 µM | [8] 55.5 µM | [17] > 100 µM | [9] 49.3 µM | [10] > 100 µM | [11] 47.4 µM | [12] > 100 µM | [13] 71 µM | [14] 83 µM | [15] 64.3 µM | [16] 43.9 µM

CC(=O)NNc1nc(C)c(C(=O)NNC(=O)C(=O)Nc2nc3ccc([N+](=O)[O-])cc3s2)s1
inactive: [1] 61.5 µM | [2] 33.6 µM | [3] 67.1 µM | [4] 50.4 µM | [18] 45.8 µM | [5] 30.5 µM | [6] 28.8 µM | [7] 25 µM | [8] > 100 µM | [17] > 67.8 µM | [19] 45.9 µM | [9] 28.8 µM | [10] 35 µM | [11] 82.8 µM | [20] 26.9 µM | [12] 65.2 µM | [13] 56.9 µM | [14] 42.6 µM | [15] 81.7 µM | [16] 29.4 µM

CCOC(=O)NC1C2CC(=O)C(O2)C1OCc1ccccc1 (stereo unspecified)
inactive: [1] > 100 µM | [2] > 100 µM | [3] > 100 µM | [4] > 100 µM | [5] > 100 µM | [6] > 100 µM | [7] > 100 µM | [8] > 100 µM | [17] > 100 µM | [9] > 100 µM | [10] > 100 µM | [11] > 100 µM | [12] > 100 µM | [13] > 100 µM | [14] > 100 µM | [16] > 100 µM

COc1ccc(N2C(=O)C3c4[nH]c5ccccc5c4C4CCCCC4C3C2=O)cc1 (stereo unspecified)
inactive: [1] 11.1 µM | [2] 24.6 µM | [3] 18.3 µM | [4] 22.5 µM | [5] 51.3 µM | [6] 18.2 µM | [7] 18.2 µM | [8] 39.4 µM | [17] 18 µM | [9] 16.1 µM | [10] 5.56 µM | [11] > 100 µM | [12] 10.6 µM | [13] 16.6 µM | [14] 21.7 µM | [15] 50.6 µM | [16] 3.5 µM

C=C1C(=O)OC2CC(C)C3C=CC(=O)C3CC12 (stereo unspecified)
inactive: [1] 1.76 µM | [2] 11.5 µM | [3] 7.93 µM | [4] 3.08 µM | [18] 2.64 µM | [5] 2.17 µM | [6] 1.88 µM | [7] 1.46 µM | [8] 3.52 µM | [17] 1.62 µM | [19] 2.07 µM | [9] 1.5 µM | [10] 2.05 µM | [11] 3.29 µM | [20] 2.37 µM | [12] 1.68 µM | [13] 2.04 µM | [14] 2.14 µM | [15] 15.4 µM | [16] 5.51 µM

COc1cc2c(cc1OC)C1[C@@H](c3ccccc3)OCN1CC2 (stereo partly specified)
inactive: [1] > 100 µM | [2] > 100 µM | [3] > 100 µM | [4] > 100 µM | [5] > 100 µM | [6] 83.4 µM | [7] > 63.1 µM | [8] > 100 µM | [17] > 100 µM | [9] > 100 µM | [10] > 100 µM | [11] > 100 µM | [12] > 100 µM | [13] > 100 µM | [14] > 96.4 µM | [15] > 100 µM | [16] 60.8 µM

CN(C)c1ccc(/C=C2\N=C(c3ccc(N)cc3)OC2=O)cc1
inactive: [1] > 100 µM | [2] > 100 µM | [3] > 100 µM | [4] > 100 µM | [5] > 100 µM | [6] > 100 µM | [7] 38.8 µM | [8] > 100 µM | [17] > 100 µM | [9] > 100 µM | [10] > 100 µM | [11] > 100 µM | [12] > 100 µM | [13] > 100 µM | [14] > 100 µM | [15] > 100 µM | [16] > 100 µM

O=C(CC/C(CC(=O)c1ccc(Br)cc1)=N\O)Nc1ccc(Cl)c(Cl)c1
inactive: [1] > 100 µM | [2] 36.3 µM | [3] > 100 µM | [4] 65 µM | [6] 68.2 µM | [7] 25.4 µM | [8] > 100 µM | [17] > 100 µM | [9] 52.7 µM | [10] > 100 µM | [11] 54.6 µM | [12] > 100 µM | [13] > 100 µM | [14] 29.8 µM | [16] 23.8 µM

N#CC(C(=O)CCC(=O)Nc1ccc(Cl)cc1)c1ccccc1Cl (stereo unspecified)
inactive: [1] > 100 µM | [2] > 100 µM | [3] > 100 µM | [4] 54.8 µM | [5] 89.3 µM | [6] > 100 µM | [7] 18.4 µM | [8] 17.1 µM | [17] 47.8 µM | [9] > 100 µM | [10] > 100 µM | [11] 50.5 µM | [12] > 100 µM | [13] 51.6 µM | [14] > 100 µM | [15] > 100 µM | [16] 45.9 µM

N#CC(C(=O)CCC(=O)Nc1ccc(Cl)c(Cl)c1)c1ccccc1 (stereo unspecified)
inactive: [1] > 100 µM | [2] > 100 µM | [3] > 100 µM | [4] > 100 µM | [5] > 100 µM | [6] > 100 µM | [7] > 100 µM | [8] > 100 µM | [17] > 100 µM | [9] > 100 µM | [10] > 100 µM | [11] > 100 µM | [12] > 100 µM | [13] > 100 µM | [14] > 100 µM | [15] > 100 µM | [16] > 100 µM

Source: ChEMBL document CHEMBL1201862, “PubChem BioAssay data set” (2004)
